Data: patent US9845310B2 (priority 2015, dated 2017)
Values joined by “and” are separate entries in the source; they are usually repeats but may differ in a detail not shown here. Equal entries are not always repeated. Where two headings read alike, the source gives them in different places.

Legend:
[1] = tested on: heart failure rat model; format: in vivo; settings: for cardiac contractility as measured by dP/dtmax (derivative of left ventricular pressure): male Lewis rats, heart failure by permanent ligation of left descending coronary artery, ejection fraction <35%, dosed acutely for 30 min
Procedure: Male Lewis rats (Charles River, USA) at 2-3 months of age were used for the study. […] APJ agonists were administered dose dependently acutely for a period of 30 min.

[2] = tested on: naive Sprague Dawley rat hearts; settings: for left ventricular dP/dtmax (load independent cardiac contractility) / left ventricular dP/dtmin (load independent cardiac relaxation): ex vivo naive Sprague Dawley rat hearts, Langendorff apparatus, as a function of concentration
[3] = tested on: heart failure rat model; settings: captopril alone, acute settings, heart failure rats in vivo
[4] = tested on: isolated perfused rat hearts; assay: Ex vivo isolated perfused rat heart (Langendorff) assay, load independent inotropic and lusitropic effects; settings: ARB losartan together with APJ agonist
[5] = molecular target: human APJ and the AT1R receptor (Homo sapiens (Human), UniProt P30556+P35414); assay: IP1 TR-FRET assay of AngII response with or without APJ agonists in double stable CHO-K1 APJ/AT1R cells; format: cell-based; settings: in the presence of AngII; losartan added
human APJ and the AT1R receptor, sequence (P35414 whole entry, looked up): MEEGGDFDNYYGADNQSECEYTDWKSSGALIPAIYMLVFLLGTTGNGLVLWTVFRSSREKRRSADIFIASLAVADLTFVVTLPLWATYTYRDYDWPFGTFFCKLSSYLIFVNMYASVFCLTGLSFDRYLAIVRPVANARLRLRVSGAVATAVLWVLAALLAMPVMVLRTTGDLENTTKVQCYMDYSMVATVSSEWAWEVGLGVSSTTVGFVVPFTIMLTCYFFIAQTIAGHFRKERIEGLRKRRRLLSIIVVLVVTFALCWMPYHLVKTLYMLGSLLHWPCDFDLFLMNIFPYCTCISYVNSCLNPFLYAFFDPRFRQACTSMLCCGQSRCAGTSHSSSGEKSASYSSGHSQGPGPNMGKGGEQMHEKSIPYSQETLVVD
human APJ and the AT1R receptor, sequence (P30556 whole entry, looked up): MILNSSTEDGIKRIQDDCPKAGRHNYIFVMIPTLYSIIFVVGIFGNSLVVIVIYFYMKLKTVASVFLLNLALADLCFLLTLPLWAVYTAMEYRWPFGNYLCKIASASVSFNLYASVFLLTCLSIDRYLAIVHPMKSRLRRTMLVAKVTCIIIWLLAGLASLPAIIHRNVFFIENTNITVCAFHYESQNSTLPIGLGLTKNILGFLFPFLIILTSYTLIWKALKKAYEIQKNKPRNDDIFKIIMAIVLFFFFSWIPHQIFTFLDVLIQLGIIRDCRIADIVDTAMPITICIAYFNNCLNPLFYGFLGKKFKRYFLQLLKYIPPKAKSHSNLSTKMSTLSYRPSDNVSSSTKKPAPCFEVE
Procedure: Single and double stable recombinant cell lines were generated for human APJ and the AT1R receptor in CHO K1 cells tagged either with FLAG or hemagglutinin (HA) tag. Briefly, the CHO-K1 APJ/AT1R cells were seeded in culture medium of DMEM-F12 and 10% FBS at a density of 15 k/well in a 96 well plate overnight. The next day, the culture medium was replaced with medium containing no serum for 4 hours. The compound AngII at a range of concentrations (1 pM-10 μM) with or without different concentrations of APJ agonists were diluted in stimulation buffer and added to the cell plate. The plate was sealed and incubated for 1 hour. This was followed by addition of IP-d2 conjugate followed by europium cryptate antibody conjugate into the wells. The plate was sealed, followed with incubation for 2 hours at room temperature. Time-resolved fluorescence resonance energy (TR-FRET) at 620 nm and 665 nm was measured after 2 hours with an Envision reader. The signal ratios and delta F were calculated and the amount of IP1 produced was inversely proportional to the TR-FRET ratio, 665/620 nm.

[6] = molecular target: APJ (Homo sapiens (Human), UniProt P35414); settings: 2003 study, Medhurst et al.; cited from earlier work
APJ, sequence (P35414 whole entry): as the sequence (P35414 whole entry, looked up) above

[7] = molecular target: human AT1R receptor expressed in the CHO cell line (Homo sapiens (Human), UniProt P30556); settings: different concentrations of AngII with fixed concentration of pyr apelin-13; human AT1R expressed alone in CHO cells
human AT1R receptor expressed in the CHO cell line, sequence (P30556 whole entry): as the sequence (P30556 whole entry, looked up) above
Procedure: The function of the inositol phosphate accumulation (IP1) was measured by Time-resolved fluorescence resonance energy (TR-FRET) at 620 nm and 665 nm respectively.

[8] = in vivo heart failure (MI) rat, acute administration for 30 min
[9] = ex vivo isolated perfused rat heart, contractility, percent change over vehicle
[10] = ex vivo isolated perfused rat heart, relaxation (lusitropic), percent change over vehicle

Compound | MI Rat Model dP/dtmax(%) [1, 8] | Isolated Heart Assay dP/dtmax(%) [2, 9] | Isolated Heart Assay dP/dtmin(%) [2, 10] | other results
CCO[C@H](c1ncc(C)cn1)[C@H](C)S(=O)(=O)Nc1nnc(-c2cccnc2)n1-c1c(OC)cccc1OC (single isomer, unassigned) [Example 109.0] |  |  |  | cardiac contractility as measured by dP/dtmax (derivative of left ventricular pressure) [1]: increase in cardiac contractility; MI Rat Model dP/dtmax(%) ([1]; rat, in vivo): 20%; Isolated Heart Assay dP/dtmax(%) [2]: 15%; Isolated Heart Assay dP/dtmin(%) [2]: 25%; left ventricular dP/dtmax (load independent cardiac contractility) [2]: increases load independent cardiac contractility; left ventricular dP/dtmin (load independent cardiac relaxation) [2]: increases load independent cardiac relaxation
COc1cccc(OC)c1-n1c(NS(=O)(=O)[C@H](C)[C@@H](OC)c2ncc(Cl)cn2)nnc1-c1cncc(C)c1 (single isomer, unassigned) [Example 557.0] | No effect | 17.0% | 20.0% | 
COc1cccc(OC)c1-n1c(NS(=O)(=O)[C@@H](C)[C@@H](OC(C)C)c2ncc(C)cn2)nnc1-c1cncc(C)c1 (stereo in doubt) [Example 91.0, (1S,2S)-N-(4-(2,6-dimethoxyphenyl)-5-(5-methylpyridin-3-yl)-4H-1,2,4-triazol-3-yl)-1-isopropoxy-1-(5-methylpyrimidin-2-yl)propane-2-sulfonamide] | 25% | 20.0% | 43.0% | 
COc1cccc(OC)c1-n1c(NS(=O)(=O)[C@@H](C)[C@H](OC(C)C)c2ncc(C)cn2)nnc1-c1cncc(C)c1 (stereo in doubt) [Example 93.0, (1R,2S)-N-(4-(2,6-dimethoxyphenyl)-5-(5-methylpyridin-3-yl)-4H-1,2,4-triazol-3-yl)-1-isopropoxy-1-(5-methylpyrimidin-2-yl)propane-2-sulfonamide] | 20% | 19.0% | 27.0% | 
C[C@H](CS)C(=O)N1CCC[C@H]1C(=O)O [Captopril, captopril] |  |  |  | contractility or ejection fraction [3]: does not show a marked improvement
COc1cccc(-c2nnc(NS(=O)(=O)[C@@H](C)[C@H](OC)c3ncc(C)cn3)n2-c2c(OC)cccc2OC)n1 [Example 27.0, (1R,2S)-N-(4-(2,6-dimethoxyphenyl)-5-(6-methoxypyridin-2-yl)-4H-1,2,4-triazol-3-yl)-1-methoxy-1-(5-methylpyrimidin-2-yl)propane-2-sulfonamide] | 20% | 26% | 20% | cardiac contractility as measured by dP/dtmax (derivative of left ventricular pressure) [1]: increase in cardiac contractility; left ventricular dP/dtmax (load independent cardiac contractility) [2]: increases load independent cardiac contractility; left ventricular dP/dtmin (load independent cardiac relaxation) [2]: increases load independent cardiac relaxation
COc1cccc(OC)c1-n1c(NS(=O)(=O)[C@@H](C)[C@H](O)c2ncc(C)cn2)nnc1-c1cccc(C)n1 [Example 99.0] | 30% and 31% | 18% and 19.7% | 30% and 31% | 
COc1cccc(OC)c1-n1c(NS(=O)(=O)[C@@H](C)[C@H](C)c2cnc(C)cn2)nnc1-c1cccnc1 [Example 198.0, (2S,3R)-N-(4-(2,6-dimethoxyphenyl)-5-(pyridin-3-yl)-4H-1,2,4-triazol-3-yl)-3-(5-methylpyrazin-2-yl)butane-2-sulfonamide] | 15% | 15.0% | 19.0% | 
COc1cccc(OC)c1-n1c(NS(=O)(=O)[C@@H](C)[C@H](OC)c2ncc(C)cn2)nnc1-c1cncc(C)c1 [Example 203.0, (1R,2S)-N-(4-(2,6-dimethoxyphenyl)-5-(5-methyl-3-pyridinyl)-4H-1,2,4-triazol-3-yl)-1-methoxy-1-(5-methyl-2-pyrimiidnyl)-2-propanesulfonamide] | 12% | No effect | No effect | 
COc1cccc(OC)c1-n1c(NS(=O)(=O)[C@@H](C)[C@H](C)c2ncc(C)cn2)nnc1-c1cccnc1 [Example 586.0, (2S,3R)-N-(4-(2,6-dimethoxyphenyl)-5-(3-pyridinyl)-4H-1,2,4-triazol-3-yl)-3-(5-methyl-2-pyrimidinyl)-2-butanesulfonamide] |  |  |  | cardiac contractility as measured by dP/dtmax (derivative of left ventricular pressure) [1]: increase in cardiac contractility; Isolated Heart Assay dP/dtmax(%) [2]: 15%; Isolated Heart Assay dP/dtmin(%) [2]: 21%; left ventricular dP/dtmax (load independent cardiac contractility) [2]: increases load independent cardiac contractility; left ventricular dP/dtmin (load independent cardiac relaxation) [2]: increases load independent cardiac relaxation
COc1ncnc(OC)c1-n1c(NS(=O)(=O)[C@@H](C)[C@H](OC)c2ncc(C)cn2)nnc1-c1ccccn1 [Example 628.0, (1R,2S)-N-(4-(4,6-dimethoxy-5-pyrimidinyl)-5-(2-pyridinyl)-4H-1,2,4-triazol-3-yl)-1-methoxy-1-(5-methyl-2-pyrimidinyl)-2-propanesulfonamide] |  |  |  | MI Rat Model dP/dtmax(%) ([1]; rat, in vivo): 15%; Isolated Heart Assay dP/dtmax(%) [2]: 18.3%; Isolated Heart Assay dP/dtmin(%) [2]: 18.0%
COc1cccc(-c2nnc(NS(=O)(=O)[C@@H](C)[C@H](OC)c3ncc(C)cn3)n2-c2c(F)cccc2F)n1.O=C(O)C(F)(F)F [Example 684.0, (1R,2S)-N-(4-(2,6-difluorophenyl)-5-(6-methoxy-2-pyridinyl)-4H-1,2,4-triazol-3-yl)-1-methoxy-1-(5-methyl-2-pyrimidinyl)-2-propanesulfonamide] | 20% | 19.0% | 18.3% | 
CCCCc1nc(Cl)c(CO)n1Cc1ccc(-c2ccccc2-c2nn[nH]n2)cc1 [losartan] |  |  |  | APJ receptor signaling on blocking AT1R, in vivo studies ([1]; ARB losartan together with APJ agonist): synergistic effects; APJ receptor signaling on blocking AT1R, ex-vivo studies [4]: synergistic effects; effect on the positive cooperativity induced by APJ small molecule agonists [5]: relieved this cooperativity
apelin-17 |  |  |  | in vitro activity compared among apelin-36, apelin-17 and apelin-13 [6]: approximately equipotent
apelin-36 |  |  |  | in vitro activity compared among apelin-36, apelin-17 and apelin-13 [6]: approximately equipotent
pyr apelin-13 |  |  |  | positive cooperativity (IP1 accumulation) [7]: no positive cooperativity observed
